US11162944B2, “Compositions and methods” (priority 2015, dated 2021)
Like-named read-outs stand apart in the source and are kept apart here. Marks after values point to notes of the source that are not given here.

System: biomarker (antibody) in serum samples from patients with symptoms of tuberculosis
Format: binding, human

Compound: CCCCCCCCCCCCCCCCCCCCCCCC[C@@H](C(=O)OC[C@H]1O[C@H](OC)[C@@H](O)[C@@H]1O)[C@H](O)CCCCCCCCCCC[C@H]1CC1CCCCCCCCCCCCCC[C@H]1C[C@H]1CCCCCCCCCCCCCCCCCCCC (some centres unmarked) [Antigen F]
- ELISA absorbance at 492 nm (serum sample 1 TB+): 0.74*
- ELISA absorbance at 492 nm (serum sample 2 TB+): 0.76*
- ELISA absorbance at 492 nm (serum sample 3 TB+): 0.99*
- ELISA absorbance at 492 nm (serum sample 4 TB+): 0.97*
- ELISA absorbance at 492 nm (serum sample 5 TB+): 0.99*
- ELISA absorbance at 492 nm (serum sample 6 TB+): 1.39*
- ELISA absorbance at 492 nm (serum sample 7 TB+): 1.97*
- ELISA absorbance at 492 nm (serum sample 8 TB+): 1.67*
- ELISA absorbance at 492 nm (serum sample 9 TB+): 1.09*
- ELISA absorbance at 492 nm (serum sample 10 TB−): 0.59
- ELISA absorbance at 492 nm (serum sample 11 TB−): 0.92*
- ELISA absorbance at 492 nm (serum sample 12 TB−): 0.84*
- ELISA absorbance at 492 nm (serum sample 13 TB−): 0.60
- ELISA absorbance at 492 nm (serum sample 14 TB−): 1.30*
- ELISA absorbance at 492 nm (serum sample 15 TB−): 0.64
- ELISA absorbance at 492 nm (serum sample 16 TB−): 0.56
- ELISA absorbance at 492 nm (serum sample 17 TB−): 0.81*
- ELISA absorbance at 492 nm (serum sample 18 TB−): 0.68
- ELISA absorbance at 492 nm (serum sample 19 TB−): 0.71*
- ELISA absorbance at 492 nm (serum sample 20 TB−): 1.03*
- ELISA absorbance at 492 nm (serum sample 21 TB−): 0.61
- ELISA absorbance at 492 nm (serum sample 22 TB−): 0.66
- ELISA absorbance at 492 nm (serum sample 23 TB−): 0.81*
- ELISA absorbance at 492 nm (serum sample 24 TB−): 0.62
- ELISA absorbance at 492 nm (serum sample 25 TB−): 0.21
- ELISA absorbance at 492 nm (serum sample 26 TB−): 0.72
- ELISA absorbance at 492 nm (serum sample 27 TB−): 0.61
- ELISA absorbance at 492 nm (serum sample 28 TB−): 0.38
- ELISA absorbance at 492 nm (serum sample 29 TB−): 0.41
- ELISA absorbance at 492 nm (serum sample 30 TB−): 0.39
- ELISA absorbance at 492 nm (serum sample 31 TB−): 0.51
- ELISA absorbance at 492 nm (serum sample 32 TB−): 0.91*
- ELISA absorbance at 492 nm (serum sample 33 TB−): 0.42
- ELISA absorbance at 492 nm (serum sample 34 TB−): 0.49
- ELISA absorbance at 492 nm (serum sample 35 TB−): 0.38
- ELISA absorbance at 492 nm (serum sample 36 TB−): 0.28
- ELISA absorbance at 492 nm (serum sample 37 TB−): 0.55
- ELISA absorbance at 492 nm (serum sample 38 TB−): 0.52
- ELISA absorbance at 492 nm (serum sample 39 TB−): 0.35
- ELISA absorbance at 492 nm (serum sample 40 TB−): 0.35
- ELISA absorbance at 492 nm (serum sample 41 TB−): 0.66
- ELISA absorbance at 492 nm (serum sample 42 TB−): 0.55
- ELISA absorbance at 492 nm (serum sample 43 TB−): 0.30
- ELISA absorbance at 492 nm (serum sample 44 TB−): 0.98*
- ELISA absorbance at 492 nm (serum sample 45 TB−): 0.43
- ELISA absorbance at 492 nm (serum sample 46 TB−): 0.31
- ELISA absorbance at 492 nm (serum sample 47 TB−): 0.56
- ELISA absorbance at 492 nm (serum sample 48 TB−): 0.32
- ELISA absorbance at 492 nm (serum sample 49 TB−): 0.51
- ELISA absorbance at 492 nm (serum sample 50 TB−): 0.37
- ELISA absorbance at 492 nm (serum sample 51 TB−): 0.21
- ELISA absorbance at 492 nm (serum sample 52 TB−): 0.36
- ELISA absorbance at 492 nm (serum sample 53 TB−): 0.26
- ELISA absorbance at 492 nm (serum sample 54 TB−): 0.27
- ELISA absorbance at 492 nm (serum sample 55 TB−): 0.27
- ELISA absorbance at 492 nm (serum sample 56 TB−): 0.73*
- ELISA absorbance at 492 nm (serum sample 57 TB−): 0.37
- ELISA absorbance at 492 nm (serum sample 58 TB−): 0.41
- ELISA absorbance at 492 nm (serum sample 59 TB−): 0.45
- ELISA absorbance at 492 nm (serum sample 60 TB−): 0.44
- ELISA absorbance at 492 nm (serum sample 61 TB−): 0.41
- ELISA absorbance at 492 nm (serum sample 62 TB−): 0.30
- ELISA absorbance at 492 nm (serum sample 63 TB−): 0.25
- ELISA absorbance at 492 nm (serum sample 64 TB−): 0.29

Compound: CCCCCCCCCCCCCCCCCCCCCC[C@@H](C(=O)OC[C@H]1O[C@H](OC)[C@@H](O)[C@@H]1O)[C@H](O)CCCCCCCCCCCCCCCCC[C@@H]1C[C@@H]1CCCCCCCCCCCCCCCC[C@@H](OC)[C@@H](C)CCCCCCCCCCCCCCCCCC [Antigen A]
- ELISA absorbance at 492 nm (serum sample 1 TB+): 0.28*
- ELISA absorbance at 492 nm (serum sample 2 TB+): 0.29*
- ELISA absorbance at 492 nm (serum sample 3 TB+): 0.30*
- ELISA absorbance at 492 nm (serum sample 4 TB+): 0.50*
- ELISA absorbance at 492 nm (serum sample 5 TB+): 0.28*
- ELISA absorbance at 492 nm (serum sample 6 TB+): 0.28*
- ELISA absorbance at 492 nm (serum sample 7 TB+): 0.93*
- ELISA absorbance at 492 nm (serum sample 8 TB+): 0.47*
- ELISA absorbance at 492 nm (serum sample 9 TB+): 0.29*
- ELISA absorbance at 492 nm (serum sample 10 TB−): 0.21
- ELISA absorbance at 492 nm (serum sample 11 TB−): 0.20
- ELISA absorbance at 492 nm (serum sample 12 TB−): 0.18
- ELISA absorbance at 492 nm (serum sample 13 TB−): 0.22
- ELISA absorbance at 492 nm (serum sample 14 TB−): 0.49*
- ELISA absorbance at 492 nm (serum sample 15 TB−): 0.23
- ELISA absorbance at 492 nm (serum sample 16 TB−): 0.31*
- ELISA absorbance at 492 nm (serum sample 17 TB−): 0.52*
- ELISA absorbance at 492 nm (serum sample 18 TB−): 0.28*
- ELISA absorbance at 492 nm (serum sample 19 TB−): 0.20
- ELISA absorbance at 492 nm (serum sample 20 TB−): 0.34*
- ELISA absorbance at 492 nm (serum sample 21 TB−): 0.47*
- ELISA absorbance at 492 nm (serum sample 22 TB−): 0.23
- ELISA absorbance at 492 nm (serum sample 23 TB−): 0.25
- ELISA absorbance at 492 nm (serum sample 24 TB−): 0.29*
- ELISA absorbance at 492 nm (serum sample 25 TB−): 0.18
- ELISA absorbance at 492 nm (serum sample 26 TB−): 0.52*
- ELISA absorbance at 492 nm (serum sample 27 TB−): 0.31*
- ELISA absorbance at 492 nm (serum sample 28 TB−): 0.28*
- ELISA absorbance at 492 nm (serum sample 29 TB−): 0.28*
- ELISA absorbance at 492 nm (serum sample 30 TB−): 0.32*
- ELISA absorbance at 492 nm (serum sample 31 TB−): 0.31*
- ELISA absorbance at 492 nm (serum sample 32 TB−): 0.34*
- ELISA absorbance at 492 nm (serum sample 33 TB−): 0.18
- ELISA absorbance at 492 nm (serum sample 34 TB−): 0.39*
- ELISA absorbance at 492 nm (serum sample 35 TB−): 0.23
- ELISA absorbance at 492 nm (serum sample 36 TB−): 0.11
- ELISA absorbance at 492 nm (serum sample 37 TB−): 0.28*
- ELISA absorbance at 492 nm (serum sample 38 TB−): 0.29*
- ELISA absorbance at 492 nm (serum sample 39 TB−): 0.21
- ELISA absorbance at 492 nm (serum sample 40 TB−): 0.18
- ELISA absorbance at 492 nm (serum sample 41 TB−): 0.18
- ELISA absorbance at 492 nm (serum sample 42 TB−): 0.30*
- ELISA absorbance at 492 nm (serum sample 43 TB−): 0.25
- ELISA absorbance at 492 nm (serum sample 44 TB−): 0.41*
- ELISA absorbance at 492 nm (serum sample 45 TB−): 0.33*
- ELISA absorbance at 492 nm (serum sample 46 TB−): 0.13
- ELISA absorbance at 492 nm (serum sample 47 TB−): 0.34*
- ELISA absorbance at 492 nm (serum sample 48 TB−): 0.32*
- ELISA absorbance at 492 nm (serum sample 49 TB−): 0.38*
- ELISA absorbance at 492 nm (serum sample 50 TB−): 0.35*
- ELISA absorbance at 492 nm (serum sample 51 TB−): 0.11
- ELISA absorbance at 492 nm (serum sample 52 TB−): 0.21
- ELISA absorbance at 492 nm (serum sample 53 TB−): 0.16
- ELISA absorbance at 492 nm (serum sample 54 TB−): 0.17
- ELISA absorbance at 492 nm (serum sample 55 TB−): 0.24
- ELISA absorbance at 492 nm (serum sample 56 TB−): 0.68*
- ELISA absorbance at 492 nm (serum sample 57 TB−): 0.25
- ELISA absorbance at 492 nm (serum sample 58 TB−): 0.25
- ELISA absorbance at 492 nm (serum sample 59 TB−): 0.33*
- ELISA absorbance at 492 nm (serum sample 60 TB−): 0.37*
- ELISA absorbance at 492 nm (serum sample 61 TB−): 0.52*
- ELISA absorbance at 492 nm (serum sample 62 TB−): 0.19
- ELISA absorbance at 492 nm (serum sample 63 TB−): 0.16
- ELISA absorbance at 492 nm (serum sample 64 TB−): 2.50*
